Experimental data reported in patent publication US20230057133A1, “COMPOUND FOR THE TREATMENT AND PREVENTION OF CENTRAL NERVOUS SYSTEM DISORDERS” (ABAXYS THERAPEUTICS, priority 2019, published 2023).

Columns and labels:
Assay type in all cases: in vivo, zebrafish
zebra fish larvae [1] = assay: Model of epileptic activity: pentetrazole-induced locomotor activity of zebra fish larvae
Protocol: (§1) Compound was tested in zebrafish paradigms reaction to environmental stimuli, epileptic activity and dopaminergic hyperactivity. Zebrafish used in present studies were raised in regular conditions of housing in tanks of appropriate size and circadian rhythm (12:12 photoperiod, light/darkness). The aqueous medium used for the maintenance and experimental conditions was Instant Ocean®. The water maintained between at 27° C. or 29° C., pH between 7.2-7.5 and a conductivity value between 480-520 μS. Zebrafish embryos were placed in sterile petri dishes before being transferred to plates after the hatching.
(§2) For experimental studies, larvae of up to 5 dpf were placed in flat bottom 96-well plates. At the treatment time, the medium was replaced by 150 μL fresh medium. Pentetrazole (PTZ) and/or Cmpd1 (treatment), or vehicle (control) were added (up to 210-240 μL) to the wells followed by video recording.
(§3) Locomotion of larvae was recorded using Noldus daniovisio system equipped with infrared light detection. Ethovision XT15 software controlled the temperature of plate (28° C.) and chamber light conditions. The experimental recording was done with a cycle of light period (20 min) followed by dark period (45 min). After recording data were analysed using Ethovision XT15 software package. The distance moved by larvae was calculated for each period of 2 min recording (FIGS. 1 to 6 and 10) or as accumulated value of distance at 2 min (initiation), at 4 min at 10 min and at 20 min (switch to darkness) or at 60 min (end of recording) (FIGS. 7 and 8).
(§4) All compounds were dissolved in medium or medium containing DMSO at indicated concentrations.

zebra fish larvae [2] = assay: Model of hyperdopaminergic activity: apomorphine-induced locomotor activity of zebra fish larvae
Protocol: as §1, §2, §3, §4
The same methods as disclosed in Example 1 ware carried out for Example 2, except that the pentetrazole was replaced by apomorphine (APO).

zebra fish larvae [3] = assay: Locomotion of zebra fish larvae treated with compound alone, light period followed by dark period; settings: Cmpd1 100 μM alone versus vehicle; FIGS. 5 and 10
Protocol: as §1, §2
as §3, with “Ethovision XT15 software controlled the temperature of plate (28° C.) and chamber light conditions. The experimental recording was done with a cycle of light period (20 min) followed by dark period (45 min).” left out, “8). […]” for “8).”

## CCOC(=O)C1CCN(C(=O)[C@H](C)N(c2ccc(C)cc2)S(C)(=O)=O)CC1 [Cmpd1, ethyl 1-(N-(methylsulfonyl)-N-(p-tolyl)alanyl)piperidine-4-carboxylate]
Zebra fish larvae [1]; Cmpd1 100 μM, FIG. 2 open circles and FIG. 7
  locomotion level compared with vehicle treated zebra fishes: stabilizes locomotion to levels close to normal locomotion
Zebra fish larvae [1]; co-treatment Cmpd1 100 μM + pentetrazole 10 mM, FIG. 2 and FIG. 7
  locomotor activity induced by pentetrazole alone (distance moved): decrease of the locomotor activity
Zebra fish larvae [1]; pentetrazole model, Cmpd1 100 μM
  conclusion of the epileptic activity model: anti-epileptic activity
Zebra fish larvae [2]; FIG. 5 and FIGS. 9 and 10
  locomotion level compared with vehicle treated zebra fish: stabilizes locomotion to levels close to normal locomotion
Zebra fish larvae [2]; apomorphine model
  conclusion of the hyperdopaminergic activity model: stabilizer of the hyperdopaminergic activity
Zebra fish larvae [2]; co-treatment Cmpd1 100 μM + apomorphine 55 μM, FIG. 9
  locomotor activity induced by apomorphine alone (distance moved): decrease of the locomotor activity
Zebra fish larvae [2]; co-treatment Cmpd1 100 μM + apomorphine 75 μM, FIG. 4
  locomotor activity induced by apomorphine alone (distance moved): decrease of the locomotor activity
Zebra fish larvae [2]; first period of the assay, up to ~20 min, FIG. 9
  apomorphine-induced locomotion activity, time course: reduces apomorphine-induced locomotion activity strongly
Zebra fish larvae [3]
  locomotion activity and peak due to change to dark condition: maintains a low level of locomotion activity suppressing also the peak due to change to dark condition

## CN1CCc2cccc3c2[C@H]1Cc1ccc(O)c(O)c1-3 [apomorphine, reference compound]
Zebra fish larvae [2]; apomorphine alone, 75 μM (FIG. 3) or 55 μM (FIG. 8), light conditions
  locomotor activity (distance moved) versus vehicle: clear increase of locomotor activity in light conditions

## C1CCc2nnnn2CC1 [pentetrazole, reference compound]
Zebra fish larvae [1]; pentetrazole 10 mM alone, larvae up to 5 dpf, light 20 min then dark 45 min, FIGS. 1, 2, 6
  locomotor activity (distance moved) versus vehicle: clear increase of locomotor activity in both light and dark conditions
